Laboratory results from patent publication EP4678638A1, “NEW E3 UBIQUITIN LIGASE LIGAND, PROTEIN DEGRADATION AGENT AND USE THEREOF” (priority 2023, dated 2024).

Tests used:
MCF7 = experiment: CCK-8 proliferation, MCF7 (MCF-7); format: cell-based; conditions: Homo sapiens, MCF7; Table B6, compounds designed based on the ALK inhibitors; MCF-7 cells; read-out: Inhibitory activity (IC50, nM) on tumor cell proliferation, MCF-7
Summary of the method: (§1)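 CCK-8 viability readout; IC50 from growth-inhibition curve fitting. Cells plated, dosed 24h later with a 10-point series, top 10µM, 5-fold steps. Culture at 37°C, 5% CO2.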

H2228 = experiment: CCK-8 proliferation, NCI-H2228 (H2228); format: cell-based; conditions: Homo sapiens, NCI-H2228; Table B6, compounds designed based on the ALK inhibitors; H2228 cells; read-out: Inhibitory activity (IC50, nM) on tumor cell proliferation, H2228
Summary of the method: as §1

MDA-MB-231 = experiment: CCK-8 proliferation, MDA-MB-231; format: cell-based; conditions: Homo sapiens; Table B6, compounds designed based on the ALK inhibitors; MDA-MB-231 cells; read-out: Inhibitory activity (IC50, nM) on tumor cell proliferation, MDA-MB-231
Description: The tumor cells used herein were cultured in a cell culture medium listed in table A1 at 37°C in an incubator with 5% CO2. Prior to experimentation, all cell lines used were correctly identified by STR profiling, and tested negative for mycoplasma contamination using a mycoplasma detection kit through routine screenings. Table A1. Tumor cells and cell culture medium used in the present disclosure
IC50 values of the compounds of the present disclosure (including the compounds in Table 1, and compounds of examples) were measured using the Meilun Cell Counting Kit-8 kit from Dalian Meilun Biotech Co., Ltd. Assay details are as follows: tumor cells were seeded in a 96-well plate at a density listed in Table A2. After 24h, 100 µL of the inoculated cells were treated with 0.5µL of the compounds of the present disclosure (including the compounds in Tables 1 and 2, and compounds of examples) at 10 different successively decreasing concentrations (starting at the highest concentration of 10µM; 5-fold serial dilutions). After the cells were treated with the compounds of the present disclosure for a period of time, the cell viability detection reagent was added to the culture medium for cell viability assessment according to the instructions provided with the CCK-8 kit. […] The growth inhibition of the compounds of the present disclosure on cells was plotted by Prism Graphpad software, and the IC50 values of the compounds of the present disclosure were calculated therefrom. […] Seeding protocol and treatment time for tumor cells

SR = experiment: CCK-8 proliferation, SR; format: cell-based, Human; conditions: Homo sapiens; Table B6, compounds designed based on the ALK inhibitors; SR cells; read-out: Inhibitory activity (IC50, nM) on tumor cell proliferation, SR
Summary of the method: as §1

MM.1S = experiment: CCK-8 proliferation, MM.1S; format: cell-based; conditions: Homo sapiens, MM1.S; Table B6, compounds designed based on the ALK inhibitors; MM.1S cells; read-out: Inhibitory activity (IC50, nM) on tumor cell proliferation, MM.1S
Summary of the method: as §1

H1975 = experiment: CCK-8 proliferation, NCI-H1975 (H1975); format: cell-based, Human; conditions: Homo sapiens, NCI-H1975; Table B6, compounds designed based on the ALK inhibitors; H1975 cells; read-out: Inhibitory activity (IC50, nM) on tumor cell proliferation, H1975
Summary of the method: as §1

ALK = molecular target: T1, ALK (Homo sapiens, UniProt Q96SW2+Q9HC35+Q9UM73); experiment: Western blot degradation of ALK (H2228 Cell); format: cell-based; conditions: Table D5
T1 construct: evaluate the effects of the compounds of the present disclosure on the expression of target proteins in cells; endogenous in cells; host or cells: H2228
Summary of the method: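 Degradation is assessed by immunoblotting lysates of treated cells. Target bands are quantified by grayscale and normalised to an internal control, so degradation rate equals 100% minus % remaining.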

T1 sequence (Q9HC35+Q9UM73 fused): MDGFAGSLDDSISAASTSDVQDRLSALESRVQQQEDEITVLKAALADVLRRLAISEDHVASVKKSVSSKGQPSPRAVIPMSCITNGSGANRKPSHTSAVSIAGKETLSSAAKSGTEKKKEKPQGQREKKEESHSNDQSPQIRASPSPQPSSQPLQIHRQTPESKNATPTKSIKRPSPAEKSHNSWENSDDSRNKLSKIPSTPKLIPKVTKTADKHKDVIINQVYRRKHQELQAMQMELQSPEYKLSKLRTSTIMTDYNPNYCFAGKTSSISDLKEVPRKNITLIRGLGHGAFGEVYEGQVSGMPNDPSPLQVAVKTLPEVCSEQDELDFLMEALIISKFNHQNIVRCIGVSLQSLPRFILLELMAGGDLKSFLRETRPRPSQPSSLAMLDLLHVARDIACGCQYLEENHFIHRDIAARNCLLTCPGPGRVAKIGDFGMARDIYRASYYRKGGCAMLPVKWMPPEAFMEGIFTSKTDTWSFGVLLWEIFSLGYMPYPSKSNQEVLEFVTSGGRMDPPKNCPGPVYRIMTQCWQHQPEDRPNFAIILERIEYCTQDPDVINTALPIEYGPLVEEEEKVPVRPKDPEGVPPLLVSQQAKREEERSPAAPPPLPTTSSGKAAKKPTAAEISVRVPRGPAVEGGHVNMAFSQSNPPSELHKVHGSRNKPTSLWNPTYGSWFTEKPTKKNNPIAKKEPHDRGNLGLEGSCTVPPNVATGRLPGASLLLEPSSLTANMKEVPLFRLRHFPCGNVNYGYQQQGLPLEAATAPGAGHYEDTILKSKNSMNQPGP
T1 sequence (Q96SW2 whole entry): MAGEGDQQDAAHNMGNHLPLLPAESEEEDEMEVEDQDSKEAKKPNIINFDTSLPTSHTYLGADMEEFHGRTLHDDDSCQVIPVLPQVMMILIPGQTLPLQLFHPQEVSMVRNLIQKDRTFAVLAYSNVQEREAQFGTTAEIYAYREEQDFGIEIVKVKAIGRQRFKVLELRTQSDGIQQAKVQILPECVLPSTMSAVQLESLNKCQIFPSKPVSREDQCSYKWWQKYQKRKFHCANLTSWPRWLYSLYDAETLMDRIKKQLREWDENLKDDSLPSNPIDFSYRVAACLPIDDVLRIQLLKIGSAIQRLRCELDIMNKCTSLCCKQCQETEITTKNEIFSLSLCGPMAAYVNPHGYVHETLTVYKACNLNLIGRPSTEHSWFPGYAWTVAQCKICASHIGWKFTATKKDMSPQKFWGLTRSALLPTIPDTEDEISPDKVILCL
T1 sequence (Q16531 whole entry partner): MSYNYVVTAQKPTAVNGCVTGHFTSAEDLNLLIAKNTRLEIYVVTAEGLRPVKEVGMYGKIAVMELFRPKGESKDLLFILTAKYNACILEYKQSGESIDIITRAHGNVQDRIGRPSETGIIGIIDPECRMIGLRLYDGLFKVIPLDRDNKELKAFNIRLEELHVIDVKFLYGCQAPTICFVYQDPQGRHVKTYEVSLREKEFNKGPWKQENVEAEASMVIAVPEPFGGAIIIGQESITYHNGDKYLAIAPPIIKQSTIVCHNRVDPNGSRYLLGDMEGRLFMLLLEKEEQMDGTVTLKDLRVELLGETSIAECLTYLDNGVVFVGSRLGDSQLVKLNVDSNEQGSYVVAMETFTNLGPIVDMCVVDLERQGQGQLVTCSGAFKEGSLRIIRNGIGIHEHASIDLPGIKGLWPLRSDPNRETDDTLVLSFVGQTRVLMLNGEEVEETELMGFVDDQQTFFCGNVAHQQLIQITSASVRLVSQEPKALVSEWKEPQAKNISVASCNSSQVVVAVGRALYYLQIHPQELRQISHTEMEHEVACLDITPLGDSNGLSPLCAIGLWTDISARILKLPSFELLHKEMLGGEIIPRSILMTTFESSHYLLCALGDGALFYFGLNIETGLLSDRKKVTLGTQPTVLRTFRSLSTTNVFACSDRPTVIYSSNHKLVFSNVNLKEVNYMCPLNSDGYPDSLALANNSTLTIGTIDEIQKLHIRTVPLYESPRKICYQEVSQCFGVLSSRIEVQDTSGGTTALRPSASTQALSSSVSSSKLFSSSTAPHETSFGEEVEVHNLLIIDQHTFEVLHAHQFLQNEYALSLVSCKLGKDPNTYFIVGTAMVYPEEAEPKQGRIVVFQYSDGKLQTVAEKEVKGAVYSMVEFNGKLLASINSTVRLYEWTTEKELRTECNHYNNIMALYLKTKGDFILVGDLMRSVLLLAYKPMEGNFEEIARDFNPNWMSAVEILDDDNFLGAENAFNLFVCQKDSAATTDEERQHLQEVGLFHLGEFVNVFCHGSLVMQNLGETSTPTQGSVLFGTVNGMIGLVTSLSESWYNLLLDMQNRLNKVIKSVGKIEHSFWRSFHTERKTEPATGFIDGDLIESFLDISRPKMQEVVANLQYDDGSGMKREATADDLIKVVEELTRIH

Row | Structure (SMILES) | IC50 (MCF7) | IC50 (H2228) | IC50 (MDA-MB-231) | IC50 (MM.1S) | IC50 (H1975) | IC50 (SR) | Degradation of substrate protein ALK (substrate protein remaining %) (ALK)
1 | COc1cc(N2CCC(N3CCN(Cc4cccc(N5CCC(=O)NC5=O)c4)CC3)CC2)ccc1Nc1ncc(Cl)c(Nc2ccccc2P(C)(C)=O)n1 [GT-07604, 1-(3-((4-(1-(4-((5-chloro-4-((2-(dimethylphosphoryl)phenyl)amino)pyrimidin-2-yl)amino)-3-methoxyphenyl)piperidin-4-yl)piperazin-1-yl)methyl)phenyl)dihydropyr imidine-2,4(1H,3H)-dione] | 100 to 500 nM | 10 to 50 nM | 500 to 1000 nM | 500 to 1000 nM | 100 to 500 nM | 1 to 10 nM | –
2 | CCc1cc2c(cc1N1CCC(N3CCN(Cc4cccc(N5CCC(=O)NC5=O)c4)CC3)CC1)C(C)(C)c1[nH]c3cc(C#N)ccc3c1C2=O [GT-07310, 8-(4-(4-(3-(2,4-dioxotetrahydropyrimidin-1(2H)-yl)benzyl)piperazin-1-yl)piperidin-1-yl)-9-ethyl-6,6-dimethyl-11-oxo-6,11-dihydro-5H-benzo[b]carbazole-3-carbonitrile] | 500 to 1000 nM | 100 to 500 nM | 500 to 1000 nM | – | – | 1 to 10 nM | A (A is defined as 0% ≤ substrate protein remaining % ≤ 80%)
3 | CCc1cc2c(cc1N1CCC(N3CCN(Cc4ccc(N5CCC(=O)NC5=O)cc4F)CC3)CC1)C(C)(C)c1[nH]c3cc(C#N)ccc3c1C2=O [GT-07309, 8-(4-(4-(4-(2,4-dioxotetrahydropyrimidin-1(2H)-yl)-2-fluorobenzyl)piperazin-1-yl)piperidin-1-yl)-9-ethyl-6,6-dimethyl-11-oxo-6,11-dihydro-5H-benzo[b]carbazole-3-carbonitrile] | – | 100 to 500 nM | 500 to 1000 nM | – | – | 10 to 50 nM | A (A is defined as 0% ≤ substrate protein remaining % ≤ 80%)
4 | COc1cc(N2CCC(N3CCN(Cc4ccc(N5CCC(=O)NC5=O)cn4)CC3)CC2)ccc1Nc1ncc(Cl)c(Nc2ccccc2P(C)(C)=O)n1 [GT-07606, 1-(6-((4-(1-(4-((5-chloro-4-((2-(dimethylphosphoryl)phenyl)amino)pyrimidin-2-yl)amino)-3-methoxyphenyl)piperidin-4-yl)piperazin-1-yl)methyl)pyridin-3-yl)dihydropyrimidine-2,4(1H,3H)-dione] | 100 to 500 nM | 50 to 100 nM | 100 to 500 nM | 500 to 1000 nM | 100 to 500 nM | 1 to 10 nM | –
5 | COc1cc(N2CCC(N3CCN(Cc4ccnc(C5CCC(=O)NC5=O)c4)CC3)CC2)ccc1Nc1ncc(Cl)c(Nc2ccccc2P(C)(C)=O)n1 (stereo not drawn) [GT-07612, 3-(4-((4-(1-(4-((5-chloro-4-((2-(dimethylphosphoryl)phenyl)amino)pyrimidin-2-yl)amino)-3-methoxyphenyl)piperidin-4-yl)piperazin-1-yl)methyl)pyridin-2-yl)piperidine-2,6-dione] | – | 50 to 100 nM | 500 to 1000 nM | – | 100 to 500 nM | 1 to 10 nM | A (A is defined as 0% ≤ substrate protein remaining % ≤ 80%)
6 | CCc1cc2c(cc1N1CCC(N3CCN(Cc4ccc(N5CCC(=O)NC5=O)c(F)c4)CC3)CC1)C(C)(C)c1[nH]c3cc(C#N)ccc3c1C2=O [GT-07308, 8-(4-(4-(4-(2,4-dioxotetrahydropyrimidin-1(2H)-yl)-3-fluorobenzyl)piperazin-1-yl)piperidin-1-yl)-9-ethyl-6,6-dimethyl-11-oxo-6,11-dihydro-5H-benzo[b]carbazole-3-carbonitrile] | 500 to 1000 nM | 10 to 50 nM | 500 to 1000 nM | – | – | 10 to 50 nM | –
7 | COc1cc(N2CCC(N3CCN(Cc4ccc(C5CCC(=O)NC5=O)cc4)CC3)CC2)ccc1Nc1ncc(Cl)c(Nc2ccccc2P(C)(C)=O)n1 (stereo not drawn) [GT-07602, 3-(4-((4-(1-(4-((5-chloro-4-((2-(dimethylphosphoryl)phenyl)amino)pyrimidin-2-yl)amino)-3-methoxyphenyl)piperidin-4-yl)piperazin-1-yl)methyl)phenyl)piperidine-2,6-dione] | 100 to 500 nM | 10 to 50 nM | 100 to 500 nM | 100 to 500 nM | 100 to 500 nM | 1 to 10 nM | –
8 | COc1cc(N2CCC(N3CCN(Cc4ccc(N5CCC(=O)NC5=O)nc4)CC3)CC2)ccc1Nc1ncc(Cl)c(Nc2ccccc2P(C)(C)=O)n1 [GT-07607, 1-(5-((4-(1-(4-((5-chloro-4-((2-(dimethylphosphoryl)phenyl)amino)pyrimidin-2-yl)amino)-3-methoxyphenyl)piperidin-4-yl)piperazin-1-yl)methyl)pyridin-2-yl)dihydropyrimidine-2,4(1H,3H)-dione] | 100 to 500 nM | 10 to 50 nM | 100 to 500 nM | – | 100 to 500 nM | 1 to 10 nM | –

Further lines, with some results ahead:

Row | IC50 (MCF7) | IC50 (H2228) | IC50 (MDA-MB-231) | IC50 (MM.1S) | IC50 (H1975) | Structure (SMILES) | IC50 (SR) | Degradation of substrate protein ALK (substrate protein remaining %) (ALK)
9 | 100 to 500 nM | 10 to 50 nM | 500 to 1000 nM | 500 to 1000 nM | 100 to 500 nM | COc1cc(N2CCC(N(C)Cc3cccc(N4CCC(=O)NC4=O)c3)CC2)ccc1Nc1ncc(Cl)c(Nc2ccccc2P(C)(C)=O)n1 [GT-07616, 1-(3-(((1-(4-((5-chloro-4-((2-(dimethylphosphoryl)phenyl)amino)pyrimidin-2-yl)amino)-3-methoxyphenyl)piperidin-4-yl)(methyl)amino)methyl)phenyl)dihydropyrimidine-2,4(1H,3H)-dione] | 1 to 10 nM | –
10 | 500 to 1000 nM | 100 to 500 nM | 500 to 1000 nM | 500 to 1000 nM | 500 to 1000 nM | CCc1cc2c(cc1N1CCC(N3CCN(Cc4cncc(N5CCC(=O)NC5=O)c4)CC3)CC1)C(C)(C)c1[nH]c3cc(C#N)ccc3c1C2=O [GT-07702, 8-(4-(4-((5-(2,4-dioxotetrahydropyrimidin-1(2H)-yl)pyridin-3-yl)methyl)piperazin-1-yl)piperidin-1-yl)-9-ethyl-6,6-dimethyl-11-oxo-6,11-dihydro-5H-benzo[b]carbazole-3-carbonitrile] | 1 to 10 nM | –
11 | 1000 to 5000 nM | > 10000 nM | 1000 to 5000 nM | 1000 to 5000 nM | > 10000 nM | COc1cc(N2CCC(N3CCN(C)CC3)CC2)ccc1Nc1ncc(Cl)c(Nc2ccccc2P(C)(C)=O)n1 [brigatinib, reference compound] | 100 to 500 nM | –
12 | 5000 to 10000 nM | 5000 to 10000 nM | 1000 to 5000 nM | 1000 to 5000 nM | 1000 to 5000 nM | CCc1cc2c(cc1N1CCC(N3CCOCC3)CC1)C(C)(C)c1[nH]c3cc(C#N)ccc3c1C2=O [alectinib, reference compound] | 10 to 50 nM | –
13 | 500 to 1000 nM | 50 to 100 nM | 500 to 1000 nM | – | – | CCc1cc2c(cc1N1CCC(N3CCN(Cc4cc(C5CCC(=O)NC5=O)cnc4F)CC3)CC1)C(C)(C)c1[nH]c3cc(C#N)ccc3c1C2=O (stereo not drawn) [GT-07703, 8-(4-(4-((5-(2,6-dioxopiperidin-3-yl)-2-fluoropyridin-3-yl)methyl)piperazin-1-yl)piperidin-1-yl)-9-ethyl-6,6-dimethyl-11-oxo-6,11-dihydro-5H-benzo[b]carbazole-3-carbonitrile] | 1 to 10 nM | –
14 | – | 100 to 500 nM | 500 to 1000 nM | – | – | COc1cc(N2CCN(Cc3ccc(C4CCC(=O)NC4=O)cn3)CC2)ccc1Nc1ncc(Cl)c(Nc2ccccc2P(C)(C)=O)n1 (stereo not drawn) [GT-07713, 3-(6-((4-(4-((5-chloro-4-((2-(dimethylphosphoryl)phenyl)amino)pyrimidin-2-yl)amino)-3-methoxyphenyl)piperazin-1-yl)methyl)pyridin-3-yl)piperidine-2,6-dione] | 10 to 50 nM | –
15 | 100 to 500 nM | 100 to 500 nM | 500 to 1000 nM | 100 to 500 nM | 500 to 1000 nM | COc1cc(N2CCC(N(C)Cc3cncc(N4CCC(=O)NC4=O)c3)CC2)ccc1Nc1ncc(Cl)c(Nc2ccccc2P(C)(C)=O)n1 [GT-07695, 1-(5-(((1-(4-((5-chloro-4-((2-(dimethylphosphoryl)phenyl)amino)pyrimidin-2-yl)amino)-3-methoxyphenyl)piperidin-4-yl)(methyl)amino)methyl)pyridin-3-yl)dihydropyrimidine-2,4(1H,3H)-dione] | 10 to 50 nM | –
